# According to patent publication EP3295938B1, “USE OF TRIETHYL ORTHOACETATE IN THE TREATMENT OF METAL OVERLOAD DISEASES” (ÜSKÜDAR ÜNIVERSITESI, priority 2016, dated 2018):
# Key:
# [1] = after intravenous infusion; cited from earlier work
# [2] = Iron chelation activity (FeSO4/ferrozine, absorbance at 562 nm); type: biochemical; details: 100, 200 and 400 mM pure triethyl orthoacetate (Fig. 7)
# Experimental: Negative controls and methanolicmicroalgae extracts (400 µl) were pipetted into 24 well plate, then 100 µl of 0.25mM FeSO4 solution (dissolved in methanol) was added. For the reaction initiation, 100 µl 5mM ferrozine dissolved in methanol was added. Solution was homogenized by pipetting and incubated for 10 minutes at room temperature. After incubation, it was analysed by using spectrophotometric measurement at 562nm wavelength. In vitro experiments with pure triethyl orthoacetate compound was also conducted with the concentrations of 100, 200 and 400 mM respectively. Same experimental protocol was used for pure triethyl orthoacetate as described in detail above for Spirulina platensis extract.
SMILES,vascular half-life [1],in vitro iron chelating activity [2]
CC(=O)N(O)CCCCCNC(=O)CCC(=O)N(O)CCCCCNC(=O)CCC(=O)N(O)CCCCCN [deferoxamine],5 to 10 min,
"CCOC(C)(OCC)OCC [triethyl orthoacetate, Triethyl orthoacetate]",,> 70%
